The nature of data set [1]: relative lipophylia (RM) by reverse phase thin layer chromatography. Format: physicochemical. The conditions noted are these: rp-tlc, acetone/water 2:1. The method, then: The lipophylic character of the synthesized compounds was evaluated with reverse phase, thin layer chromatography.
The non-polar stationary phase is represented by plates of Merck 60 F254 silanized silica gel, whereas the polar phase consists of an acetone/water mixture (2:1).
The compounds were solubilized in chloroform (3 mg/ml).
The RM values were calculated from the average experimental values of RF, obtained from three chromatograms using the formula: […]
Higher values of RM corresponding to lower values of RF indicate more lipophylic compounds.

The test system of data set [2] is human T4-lymphocyte cell line (CEM). As to the kind of experiment: growth inhibition of normal uninfected cells (CEM). Format: cell-based. The conditions noted are these: CCRF-CEM, read-out: IC50 (toxic concentration, 50% growth inhibition of normal uninfected cells). How it is done:
(§1) For their effects on HIV-induced cytopathogenicity in human T4 -lymphocyte cell line (CEM), the compounds of the present invention were evaluated according to NIH procedures as described by R. Vince et al., Biochem. Biophys.Res.Comm., 156, 1046, 1988 and by O. S. Weislow et al. J. Natl.Canc. Inst., 81. 577,1988.
b) the inhibitory concentration 50% (IC50) which represents the toxic concentration of drug resulting in 50% growth inhibition of normal uninfected cells.
(§2) The methods, the test conditions, the evaluation criteria of the anti-HIV activity in vitro are described by Weislow, O. W., Kieser, R., Fine, D., Bader, J., Shoemaker, R. H., Boyd, M. R.: New soluble-formazan assay for HIV-1 cytopathic effects: application to high-flux screening of synthetic and natural products for AIDS-antiviral activity. J. Nati, Cancer Inst. 81:577-586,1989.

Data set [3] relates to HIV. Nature of the data set: HIV-induced cytopathogenicity in human T4-lymphocyte cell line (CEM). Format: cell-based. The conditions noted are these: for EC50: Human immunodeficiency virus 1, CCRF-CEM, read-out: EC50 (50% reduction of the viral cytopathic effect); for TI50 (therapeutic index): IC50/EC50 ratio. The method, then: as §1
It was possible to evaluate for many compounds of the invention:
a) the effective concentration 50% (EC50), which represents the concentration of the tested compound resulting in 50% reduction of the viral cytopathic effect.
c) the therapeutic index TI50 which is determined as the IC50 /EC50 ratio.
Only substances able to cause at least a 50% or greater reduction of viral cytopathic effect are kept in consideration for further investigation.
as §2
(In general: Cytopathic effects are the visible damage that an infection or toxin causes in cultured cells.)

[4] abbreviates: silanized silica gel Merck 60 F254 plates, average of three chromatograms, read-out: RM (relative lipophylia).

Read-outs that look alike come from different tables or passages of the source.

In general, EC50 refers to the concentration needed to bring the measured effect to its halfway point.

`Fc1ccccc1C1SCc2nc3ccccc3n21` (racemic) [IV, (±) 1-(2-fluorophenyl)-1H,3H-thiazole [3,4-a] benzimidazole] showed a chromatographic logP in data set [1] of -0.468. Also, in data set [2] (uninfected CEM cells), the IC50 is greater than 126 µM. Besides, the 50% effective concentration (EC50) in data set [3] (HIV-infected CEM cells) was determined as 7.63 µM. In addition, the “TI50 (therapeutic index)” value in data set [3] is reported as greater than 16.5.

Molecule `Fc1cccc(C2SCc3nc4ccccc4n32)c1` (racemic) [V, (±) 1-(3-fluorophenyl)-1H,3H-thiazole [3,4-a] benzimidazole] showed a chromatographic logP in data set [1] of -0.434. Also, in data set [2] (uninfected CEM cells), the IC50 amounted to 67.4 µM. In data set [3] (HIV-infected CEM cells), the EC50 was 5.74 µM. For the same molecule, the “TI50 (therapeutic index)” value in data set [3] was 11.8.

On to `Fc1cccc(F)c1C1SCc2nc3ccccc3n21` (racemic) [XXII, (±) 1-(2,6-difluorophenyl)-1H,3H-thiazole [3,4-a] benzimidazole], for which, in data set [1] (setting [4]), the chromatographic logP was -0.475. For the same molecule, the IC50 in data set [2] was determined as 80 µM. Further, in data set [3], the EC50 stood at 1 µM and the “TI50 (therapeutic index)” value is recorded as 80.

`Fc1cccc(Cl)c1C1SCc2nc3ccccc3n21` (racemic) [XXIX, (±) 1-(2-chloro-6-fluorophenyl)-1H,3H-thiazole [3,4-a] benzimidazole] registered a chromatographic logP in data set [1] of -0.452. In data set [2] (uninfected CEM cells), the IC50 was 19.6 µM. The EC50 in data set [3] (HIV-infected CEM cells) was 0.596 µM. For the same molecule, the “TI50 (therapeutic index)” value in data set [3] came to 32.8.

In data set [1], `Clc1cccc(Cl)c1C1SCc2nc3ccccc3n21` (racemic) [XXVI, (±) 1-(2,6-dichlorophenyl)-1H,3H-thiazole [3,4-a] benzimidazole] had a chromatographic logP of -0.402. For the same molecule, the IC50 in data set [2] (uninfected CEM cells) was found to be 22.3 µM. Also, the EC50 in data set [3] (HIV-infected CEM cells) is 0.257 µM. Moreover, the “TI50 (therapeutic index)” value in data set [3] was 86.8.

Regarding `O=[N+]([O-])c1ccc(Cl)cc1C1SCc2nc3ccccc3n21` (racemic) [XXXII, (±) 1-(2-nitro-5-chlorophenyl)-1H,3H-thiazole [3,4-a] benzimidazole], the chromatographic logP in data set [1] is -0.387.

Molecule `Brc1ccc(C2SCc3nc4ccccc4n32)cc1` (stereo not shown) [III] yielded a chromatographic logP in data set [1] of -0.43.

Regarding `Brc1cccc(C2SCc3nc4ccccc4n32)c1` (stereo not shown) [II], the chromatographic logP in data set [1] is -0.406.

In data set [1], `Clc1ccc(C2SCc3nc4ccccc4n32)cc1` (stereo not shown) [IX] registered a chromatographic logP of -0.402.

For `Brc1ccccc1C1SCc2nc3ccccc3n21` (stereo not shown) [I], in data set [1], the chromatographic logP was -0.41.

In the case of `Clc1cccc(C2SCc3nc4ccccc4n32)c1` (stereo not shown) [VIII], the chromatographic logP in data set [1] was -0.428.

In the case of `Clc1ccccc1C1SCc2nc3ccccc3n21` (stereo not shown) [VII], the chromatographic logP in data set [1] was -0.393.

Regarding `Fc1ccc(C2SCc3nc4ccccc4n32)cc1` (stereo not shown) [VI], the chromatographic logP in data set [1] is -0.412.

As for `COc1ccc(C2SCc3nc4ccccc4n32)cc1` (stereo not shown) [XIII], the chromatographic logP in data set [1] is -0.477.

On to `COc1cccc(C2SCc3nc4ccccc4n32)c1` (stereo not shown) [XII], for which the chromatographic logP in data set [1] was -0.436.

In data set [1], `FC(F)(F)c1ccccc1C1SCc2nc3ccccc3n21` (stereo not shown) [XIV] showed a chromatographic logP of -0.349.

Consider `Fc1cccc(C2SCc3nc4ccccc4n32)c1F` (stereo not shown) [XIX], for which the chromatographic logP in data set [1] is -0.452.

`Cc1cccc(C2SCc3nc4ccccc4n32)c1` (stereo not shown) [XI] showed a chromatographic logP in data set [1] of -0.399.

`N#Cc1ccc(C2SCc3nc4ccccc4n32)cc1` (stereo not shown) [XVIII] came in with a chromatographic logP in data set [1] of -0.506.

In data set [1], `Oc1cccc(C2SCc3nc4ccccc4n32)c1` (stereo not shown) [XVII] had a chromatographic logP of -0.591. The IC50 in data set [2] (uninfected CEM cells) worked out at 127 µM. Further, the 50% effective concentration (EC50) in data set [3] (HIV-infected CEM cells) amounted to 114 µM. Moreover, the “TI50 (therapeutic index)” value in data set [3] came out at 1.11.

Consider `FC(F)(F)c1ccc(C2SCc3nc4ccccc4n32)cc1` (stereo not shown) [XVI], for which, in data set [1], the chromatographic logP is -0.387.

In turn, `FC(F)(F)c1cccc(C2SCc3nc4ccccc4n32)c1` (stereo not shown) [XV] displayed a chromatographic logP in data set [1] of -0.378.

The molecule `Fc1ccc(C2SCc3nc4ccccc4n32)cc1F` (stereo not shown) [XXIII] showed a chromatographic logP in data set [1] of -0.43.

With `Clc1cccc(C2SCc3nc4ccccc4n32)c1Cl` (stereo not shown) [XXIV], the chromatographic logP in data set [1] is -0.355.

In the case of `Clc1cc(Cl)cc(C2SCc3nc4ccccc4n32)c1` (stereo not shown) [XXVIII], the chromatographic logP in data set [1] (setting [4]) is -0.337.

As for `Clc1ccc(C2SCc3nc4ccccc4n32)cc1Cl` (stereo not shown) [XXVII], the chromatographic logP in data set [1] was -0.362.

Consider `Clc1ccc(C2SCc3nc4ccccc4n32)c(Cl)c1` (stereo not shown) [XXV], for which the chromatographic logP in data set [1] was -0.329.

As for `N#Cc1cccc(C2SCc3nc4ccccc4n32)c1` (stereo not shown) [XXXIII, 1-(3-cyano-phenyl)-1H,3H-thiazole [3,4-a] benzimidazole], in data set [2] (uninfected CEM cells), the IC50 stood at 38.3 µM. The concentration giving a half-maximal response (EC50) in data set [3] (HIV-infected CEM cells) worked out at 2.94 µM. For the same molecule, in data set [3], the “TI50 (therapeutic index)” value is listed as 13.1.

`O=[N+]([O-])c1cc(C2SCc3nc4ccccc4n32)ccc1Cl` (stereo not shown) [XXXI]: the chromatographic logP in data set [1] is -0.414.

`O=[N+]([O-])c1ccccc1C1SCc2nc3ccccc3n21` (stereo not shown) [XXXVI, 1-(2-nitro-phenyl)-1H,3H-thiazole [3,4-a] benzimidazole]: the IC50 in data set [2] (uninfected CEM cells) worked out at 37.2 µM. For the same molecule, the concentration giving a half-maximal response (EC50) in data set [3] (HIV-infected CEM cells) was determined as 17.2 µM. Besides, the “TI50 (therapeutic index)” value in data set [3] came out at 2.16.

For the molecule `O=[N+]([O-])c1ccc(Cl)c(C2SCc3nc4ccccc4n32)c1` (stereo not shown) [XXX], the chromatographic logP in data set [1] is -0.423. Moreover, the IC50 in data set [2] (uninfected CEM cells) is greater than 54.4 µM. The EC50 in data set [3] (HIV-infected CEM cells) worked out at 15.9 µM. Moreover, the “TI50 (therapeutic index)” value in data set [3] was greater than 3.42.

Molecule `Fc1ccc(C2SCc3nc4ccccc4n32)c(F)c1` (stereo not shown) [XX] had a chromatographic logP in data set [1] of -0.452.

Consider `Cc1ccccc1C1SCc2nc3ccccc3n21` (stereo not shown) [X], for which, in data set [1], the chromatographic logP is -0.452.
